Measurements taken from BindingDB's records for doi:10.1021/jm301144g (Human Biomolecular Research Institute, 2012).

Target: TGF-beta receptor type-2 (Homo sapiens, UniProt P37173)
Assay: Inhibition of TGBR2 signaling in human HEK293T cells assessed as inhibition of SMAD activation after 2 to 22 hrs by dual Luciferase Assay

Chain of TGF-beta receptor type-2 (P37173 whole entry): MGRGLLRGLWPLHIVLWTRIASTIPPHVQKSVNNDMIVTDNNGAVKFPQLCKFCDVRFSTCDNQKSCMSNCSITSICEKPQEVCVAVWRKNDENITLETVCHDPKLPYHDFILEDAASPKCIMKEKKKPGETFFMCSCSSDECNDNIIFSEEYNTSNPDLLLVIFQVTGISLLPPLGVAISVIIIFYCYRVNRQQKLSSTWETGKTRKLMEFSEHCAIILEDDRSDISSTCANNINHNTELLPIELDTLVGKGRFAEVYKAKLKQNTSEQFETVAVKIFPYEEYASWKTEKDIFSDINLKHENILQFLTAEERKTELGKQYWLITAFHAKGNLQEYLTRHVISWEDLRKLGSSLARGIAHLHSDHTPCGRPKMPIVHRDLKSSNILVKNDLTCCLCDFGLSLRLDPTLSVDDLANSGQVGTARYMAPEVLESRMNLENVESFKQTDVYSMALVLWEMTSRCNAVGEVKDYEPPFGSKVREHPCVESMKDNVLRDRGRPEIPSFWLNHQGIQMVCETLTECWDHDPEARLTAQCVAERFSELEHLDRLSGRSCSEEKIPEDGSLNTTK

IC50: 460 nM
SMILES: CCOC(=O)C1=C(C)N=C2CC(C)(C)CC(=O)C2C1c1ccc(-c2ccccc2)cc1 (stereo unspecified)
